Assay [1] addresses T1, Ankyrin repeat and protein kinase domain-containing protein 1 (Homo sapiens) (UniProt Q8NFD2).
T1 sequence (whole entry): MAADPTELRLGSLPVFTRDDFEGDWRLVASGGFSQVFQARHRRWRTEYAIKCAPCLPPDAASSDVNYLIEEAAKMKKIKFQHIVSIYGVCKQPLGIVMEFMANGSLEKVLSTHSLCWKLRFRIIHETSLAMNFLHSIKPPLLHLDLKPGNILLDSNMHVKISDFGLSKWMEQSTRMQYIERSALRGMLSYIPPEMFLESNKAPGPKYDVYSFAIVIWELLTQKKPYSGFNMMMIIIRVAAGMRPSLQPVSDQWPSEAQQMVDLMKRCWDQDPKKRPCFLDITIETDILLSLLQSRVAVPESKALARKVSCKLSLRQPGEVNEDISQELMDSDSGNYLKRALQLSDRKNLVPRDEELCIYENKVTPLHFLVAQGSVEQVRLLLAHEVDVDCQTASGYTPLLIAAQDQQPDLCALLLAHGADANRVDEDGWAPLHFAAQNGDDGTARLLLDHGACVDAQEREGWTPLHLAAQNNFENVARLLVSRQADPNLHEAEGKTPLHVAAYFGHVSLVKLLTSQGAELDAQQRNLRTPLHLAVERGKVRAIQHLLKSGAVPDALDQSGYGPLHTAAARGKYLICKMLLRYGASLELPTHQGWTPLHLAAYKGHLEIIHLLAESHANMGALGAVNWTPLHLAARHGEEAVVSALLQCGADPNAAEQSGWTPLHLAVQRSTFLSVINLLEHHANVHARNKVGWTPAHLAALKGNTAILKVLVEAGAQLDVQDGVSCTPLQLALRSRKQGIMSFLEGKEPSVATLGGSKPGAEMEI
Put plainly: Selectivity interaction (KinomeScan (DiscoverX)) EUB0000655a ANKK1. Conditions: at 10 µM.

Assay [2] has as its target Protein kinase C theta type (Homo sapiens, UniProt Q04759). Kind of assay: Selectivity interaction (KinomeScan (DiscoverX)) EUB0000655a PRKCQ. Conditions: at 10 µM.
In assay [3] the target is Cyclin-dependent kinase 5/CDK5 activator 1 (Homo sapiens) (UniProt Q00535+Q15078). Kind of assay: Selectivity interaction (Kinase panel (Z-LYTE Assay)) EUB0001632a CDK5. In kind it is protein-complex assay. Conditions: at 10 µM.
The target of assay [4] is Mitogen-activated protein kinase 1 (Homo sapiens, UniProt P28482). Put plainly: Selectivity interaction (Kinase panel (Z-LYTE Assay)) EUB0001632a MAPK1. The note with it: at 10 µM.
For assay [5], the target named is Protein-tyrosine kinase 2-beta (Homo sapiens) (UniProt Q14289). Put plainly: Selectivity interaction (SelectScreen profiling (Invitrogen)) EUB0000607a PTK2B. Conditions: at 2 µM.
Assay [6] concerns the target Cyclin-dependent kinase 7 (Homo sapiens, UniProt P50613). Kind of assay: Selectivity interaction (ActivX KiNativ screen (kinase selectivity in THP-1 cell lysates)) EUB0000639a CDK7. In kind it is subcellular. The note with it: lysate, at 0.01 µM.
For assay [7], the target named is Wee1-like protein kinase 2 (Homo sapiens) (UniProt P0C1S8). Put plainly: Selectivity interaction (KinomeScan (DiscoverX)) EUB0000229b WEE2. The note with it: at 10 µM.
The target of assay [8] is Fibroblast growth factor receptor 3 (Homo sapiens, UniProt P22607). Put plainly: Selectivity interaction (Kinase panel (DSF assay)) EUB0001559a FGFR3. (In DSF a fluorescence change marks the thermal transition of the protein.)
For assay [9], the system named is Epidermal growth factor receptor (Homo sapiens), P00533 [UNDEFINED MUTATION]. Put plainly: Selectivity interaction (KinomeScan (DiscoverX)) EUB0001619a EGFR. Conditions: at 1 µM.
Assay [10] deals with T2, Mitogen-activated protein kinase 12 (Homo sapiens) (UniProt P53778).
T2 sequence (whole entry): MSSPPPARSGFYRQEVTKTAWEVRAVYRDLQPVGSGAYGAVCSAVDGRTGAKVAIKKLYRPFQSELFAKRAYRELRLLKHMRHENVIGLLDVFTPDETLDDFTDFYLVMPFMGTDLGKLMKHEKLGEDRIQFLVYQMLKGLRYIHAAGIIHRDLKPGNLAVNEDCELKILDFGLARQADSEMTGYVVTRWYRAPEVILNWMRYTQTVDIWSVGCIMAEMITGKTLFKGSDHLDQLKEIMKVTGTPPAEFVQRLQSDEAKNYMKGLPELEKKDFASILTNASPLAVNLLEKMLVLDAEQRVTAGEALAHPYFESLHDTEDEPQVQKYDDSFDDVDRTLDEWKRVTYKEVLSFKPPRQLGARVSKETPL
Put plainly: Selectivity interaction (Kinase panel (literature)) EUB0001199aCl MAPK12. The note with it: at 1 µM.

Assay [11] has as its target T3, MAP/microtubule affinity-regulating kinase 4 (Homo sapiens) (UniProt Q96L34).
T3 sequence (whole entry): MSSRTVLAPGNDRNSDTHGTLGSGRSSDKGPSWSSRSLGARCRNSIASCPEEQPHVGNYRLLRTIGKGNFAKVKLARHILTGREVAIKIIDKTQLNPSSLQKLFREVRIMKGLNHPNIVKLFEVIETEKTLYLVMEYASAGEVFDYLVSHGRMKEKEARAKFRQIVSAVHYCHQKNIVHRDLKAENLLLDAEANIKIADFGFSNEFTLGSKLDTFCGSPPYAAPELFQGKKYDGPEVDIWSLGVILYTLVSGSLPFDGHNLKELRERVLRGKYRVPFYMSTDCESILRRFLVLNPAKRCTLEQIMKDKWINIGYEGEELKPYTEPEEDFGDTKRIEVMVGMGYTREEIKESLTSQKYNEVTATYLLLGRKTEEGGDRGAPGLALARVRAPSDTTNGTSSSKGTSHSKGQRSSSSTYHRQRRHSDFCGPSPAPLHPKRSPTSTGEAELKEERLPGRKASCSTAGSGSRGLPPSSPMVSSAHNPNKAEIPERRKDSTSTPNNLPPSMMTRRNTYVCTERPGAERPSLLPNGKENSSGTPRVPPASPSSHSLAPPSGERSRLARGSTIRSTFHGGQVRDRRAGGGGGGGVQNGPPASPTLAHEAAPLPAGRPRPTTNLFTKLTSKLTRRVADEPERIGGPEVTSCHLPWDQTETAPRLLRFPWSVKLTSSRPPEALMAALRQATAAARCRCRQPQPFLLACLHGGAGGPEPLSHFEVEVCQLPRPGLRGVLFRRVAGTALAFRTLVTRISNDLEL
Put plainly: Selectivity interaction (KinomeScan (DiscoverX)) EUB0000618a MARK4. The note with it: at 10 µM.

Each structure is given as a SMILES string.

Chain of Cyclin-dependent kinase 7 (P50613 whole entry): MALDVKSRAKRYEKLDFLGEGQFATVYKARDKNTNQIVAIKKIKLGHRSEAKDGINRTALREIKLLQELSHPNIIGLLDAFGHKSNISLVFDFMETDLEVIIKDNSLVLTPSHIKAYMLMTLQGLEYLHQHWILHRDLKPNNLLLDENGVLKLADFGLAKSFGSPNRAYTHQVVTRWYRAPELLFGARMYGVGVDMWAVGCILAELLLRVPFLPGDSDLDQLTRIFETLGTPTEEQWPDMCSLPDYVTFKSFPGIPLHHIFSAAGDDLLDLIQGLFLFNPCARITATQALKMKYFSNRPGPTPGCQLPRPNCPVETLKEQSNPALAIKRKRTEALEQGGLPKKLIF
Chain of Mitogen-activated protein kinase 1 (P28482 whole entry): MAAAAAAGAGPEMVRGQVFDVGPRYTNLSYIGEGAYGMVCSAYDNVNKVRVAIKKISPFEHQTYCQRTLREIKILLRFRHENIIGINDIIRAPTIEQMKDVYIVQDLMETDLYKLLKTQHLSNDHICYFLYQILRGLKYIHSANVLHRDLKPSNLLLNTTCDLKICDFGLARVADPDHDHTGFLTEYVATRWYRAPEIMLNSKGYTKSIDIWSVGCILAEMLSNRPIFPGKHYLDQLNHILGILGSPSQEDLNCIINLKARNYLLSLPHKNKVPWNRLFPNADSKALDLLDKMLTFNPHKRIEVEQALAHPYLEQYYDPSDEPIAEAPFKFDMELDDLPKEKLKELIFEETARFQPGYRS
Chain of Epidermal growth factor receptor (Homo sapiens), P00533 [UNDEFINED MUTATION] (P00533 whole entry, looked up, change not shown): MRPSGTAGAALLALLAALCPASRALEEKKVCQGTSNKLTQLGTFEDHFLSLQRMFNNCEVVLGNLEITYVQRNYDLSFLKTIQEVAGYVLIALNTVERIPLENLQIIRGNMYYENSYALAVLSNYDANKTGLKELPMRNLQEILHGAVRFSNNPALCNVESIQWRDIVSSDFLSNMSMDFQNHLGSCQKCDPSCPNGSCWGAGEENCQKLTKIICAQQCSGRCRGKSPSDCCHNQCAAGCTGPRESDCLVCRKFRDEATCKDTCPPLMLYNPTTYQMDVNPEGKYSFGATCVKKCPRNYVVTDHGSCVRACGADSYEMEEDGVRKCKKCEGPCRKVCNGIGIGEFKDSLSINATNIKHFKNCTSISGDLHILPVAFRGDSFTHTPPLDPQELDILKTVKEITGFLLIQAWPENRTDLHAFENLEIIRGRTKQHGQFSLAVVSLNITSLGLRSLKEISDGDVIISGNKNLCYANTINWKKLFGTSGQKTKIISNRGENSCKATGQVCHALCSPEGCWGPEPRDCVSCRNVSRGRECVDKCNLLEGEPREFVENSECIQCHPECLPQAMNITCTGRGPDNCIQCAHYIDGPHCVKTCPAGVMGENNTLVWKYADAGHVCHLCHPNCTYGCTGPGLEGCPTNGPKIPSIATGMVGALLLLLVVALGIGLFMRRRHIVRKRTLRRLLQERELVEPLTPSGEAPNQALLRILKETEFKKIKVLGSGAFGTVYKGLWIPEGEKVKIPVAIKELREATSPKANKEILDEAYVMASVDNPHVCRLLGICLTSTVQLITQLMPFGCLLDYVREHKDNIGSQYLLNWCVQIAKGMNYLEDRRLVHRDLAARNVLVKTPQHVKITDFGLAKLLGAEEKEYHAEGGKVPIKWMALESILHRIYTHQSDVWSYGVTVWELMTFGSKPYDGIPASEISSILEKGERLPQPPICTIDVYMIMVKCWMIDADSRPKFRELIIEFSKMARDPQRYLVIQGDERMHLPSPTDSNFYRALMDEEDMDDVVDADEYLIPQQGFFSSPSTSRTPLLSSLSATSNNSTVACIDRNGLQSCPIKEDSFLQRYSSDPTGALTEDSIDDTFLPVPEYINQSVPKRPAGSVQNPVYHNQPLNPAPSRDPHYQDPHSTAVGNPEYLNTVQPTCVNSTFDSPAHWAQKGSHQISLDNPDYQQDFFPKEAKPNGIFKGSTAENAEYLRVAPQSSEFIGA
Chain of Protein kinase C theta type (Q04759 whole entry, looked up): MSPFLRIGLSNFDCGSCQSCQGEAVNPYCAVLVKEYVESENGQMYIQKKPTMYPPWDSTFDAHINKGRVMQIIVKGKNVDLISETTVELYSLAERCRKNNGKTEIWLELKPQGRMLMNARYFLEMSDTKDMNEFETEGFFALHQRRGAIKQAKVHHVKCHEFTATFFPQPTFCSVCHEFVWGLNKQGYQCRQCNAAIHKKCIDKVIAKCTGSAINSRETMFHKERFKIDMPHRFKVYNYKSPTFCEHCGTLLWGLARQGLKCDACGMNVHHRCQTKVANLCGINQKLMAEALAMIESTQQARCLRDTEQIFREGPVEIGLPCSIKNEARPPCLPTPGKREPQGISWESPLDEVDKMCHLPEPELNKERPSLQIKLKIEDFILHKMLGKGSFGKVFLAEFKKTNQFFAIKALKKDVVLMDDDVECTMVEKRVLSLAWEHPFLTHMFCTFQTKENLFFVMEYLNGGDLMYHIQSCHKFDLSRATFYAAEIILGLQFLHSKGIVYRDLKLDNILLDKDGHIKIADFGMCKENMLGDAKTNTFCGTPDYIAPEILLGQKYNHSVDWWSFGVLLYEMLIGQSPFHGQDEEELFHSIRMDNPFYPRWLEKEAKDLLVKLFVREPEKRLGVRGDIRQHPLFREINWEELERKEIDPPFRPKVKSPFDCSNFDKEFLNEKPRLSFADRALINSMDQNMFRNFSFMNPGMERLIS
Chain of Wee1-like protein kinase 2 (Homo sapiens) (P0C1S8 whole entry, looked up): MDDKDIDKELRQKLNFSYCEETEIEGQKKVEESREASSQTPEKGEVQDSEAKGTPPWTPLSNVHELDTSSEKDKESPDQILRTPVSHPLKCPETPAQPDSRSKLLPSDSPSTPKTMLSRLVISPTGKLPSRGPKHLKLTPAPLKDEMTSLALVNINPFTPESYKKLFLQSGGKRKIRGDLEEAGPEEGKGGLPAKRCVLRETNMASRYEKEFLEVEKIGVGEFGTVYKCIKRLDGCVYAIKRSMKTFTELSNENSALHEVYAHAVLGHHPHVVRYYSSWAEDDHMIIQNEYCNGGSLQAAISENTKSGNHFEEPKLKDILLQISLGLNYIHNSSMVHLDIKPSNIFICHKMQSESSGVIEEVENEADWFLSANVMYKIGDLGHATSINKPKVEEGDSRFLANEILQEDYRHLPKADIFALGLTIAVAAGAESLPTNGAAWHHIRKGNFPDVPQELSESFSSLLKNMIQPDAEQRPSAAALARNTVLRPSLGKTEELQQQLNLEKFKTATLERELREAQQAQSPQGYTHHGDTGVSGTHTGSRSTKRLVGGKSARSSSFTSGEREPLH
Chain of Cyclin-dependent kinase 5/CDK5 activator 1 (Homo sapiens) (Q00535 whole entry): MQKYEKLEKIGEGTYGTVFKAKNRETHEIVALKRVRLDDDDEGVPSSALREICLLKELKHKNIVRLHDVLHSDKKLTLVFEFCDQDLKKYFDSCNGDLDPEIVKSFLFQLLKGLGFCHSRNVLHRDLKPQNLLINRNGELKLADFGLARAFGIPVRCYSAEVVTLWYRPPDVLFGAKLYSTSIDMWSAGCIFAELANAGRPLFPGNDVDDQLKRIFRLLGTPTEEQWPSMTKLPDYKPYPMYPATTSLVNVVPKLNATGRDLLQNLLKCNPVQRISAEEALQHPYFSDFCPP
Chain of Cyclin-dependent kinase 5/CDK5 activator 1 (Homo sapiens) (Q15078 99-307 partner limits assumed): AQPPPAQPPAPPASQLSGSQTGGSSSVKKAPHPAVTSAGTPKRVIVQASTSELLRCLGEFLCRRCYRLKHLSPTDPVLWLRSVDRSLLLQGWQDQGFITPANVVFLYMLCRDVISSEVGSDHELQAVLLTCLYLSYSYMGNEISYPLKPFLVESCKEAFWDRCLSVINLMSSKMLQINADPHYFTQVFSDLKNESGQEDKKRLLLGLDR
Chain of Protein-tyrosine kinase 2-beta (Homo sapiens) (Q14289 whole entry, looked up): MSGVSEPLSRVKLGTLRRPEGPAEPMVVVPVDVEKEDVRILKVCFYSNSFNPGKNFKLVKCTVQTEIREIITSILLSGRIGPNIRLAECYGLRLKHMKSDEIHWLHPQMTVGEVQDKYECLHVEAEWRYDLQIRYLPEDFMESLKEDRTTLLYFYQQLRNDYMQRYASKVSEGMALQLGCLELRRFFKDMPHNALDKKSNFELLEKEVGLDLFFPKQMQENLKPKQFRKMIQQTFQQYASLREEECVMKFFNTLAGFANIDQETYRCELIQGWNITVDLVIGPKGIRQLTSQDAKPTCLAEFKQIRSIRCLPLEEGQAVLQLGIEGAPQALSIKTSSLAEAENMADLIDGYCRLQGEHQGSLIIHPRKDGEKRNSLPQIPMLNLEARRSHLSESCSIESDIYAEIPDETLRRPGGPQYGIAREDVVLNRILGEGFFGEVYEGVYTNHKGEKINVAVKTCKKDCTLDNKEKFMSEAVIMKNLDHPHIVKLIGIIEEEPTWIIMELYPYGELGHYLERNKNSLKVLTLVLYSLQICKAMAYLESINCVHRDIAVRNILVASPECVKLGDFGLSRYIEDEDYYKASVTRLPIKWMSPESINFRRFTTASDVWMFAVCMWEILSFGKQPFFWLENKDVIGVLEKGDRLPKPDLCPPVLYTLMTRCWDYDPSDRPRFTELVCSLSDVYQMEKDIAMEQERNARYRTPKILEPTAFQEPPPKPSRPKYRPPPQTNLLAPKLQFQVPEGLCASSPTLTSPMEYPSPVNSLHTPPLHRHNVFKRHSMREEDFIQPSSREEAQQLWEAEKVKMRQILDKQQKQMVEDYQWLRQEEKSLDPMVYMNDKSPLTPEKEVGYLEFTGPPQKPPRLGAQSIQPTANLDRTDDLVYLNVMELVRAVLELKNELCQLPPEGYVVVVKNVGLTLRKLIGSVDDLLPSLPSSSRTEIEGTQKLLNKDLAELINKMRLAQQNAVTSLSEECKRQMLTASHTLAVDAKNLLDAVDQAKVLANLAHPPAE

`CN(C)CCOc1ccc(-c2nc(-c3ccncc3)c(-c3ccc4c(c3)CC/C4=N\O)[nH]2)cc1`: the % of control in assay [1] came to 100%; in assay [2], 81%.
Turning to `Cn1cc(-n2cnc3c(NCc4nc5cc(Cl)c(Cl)cc5[nH]4)nc(N4CCOCC4)nc32)cn1`, the % of control in assay [3] is 5.78%; in assay [4], -3.31%.
`CNC(=O)Nc1ccc(-c2nc(N3CC4CCC(C3)O4)c3cnn(C4CCC5(CC4)OCCO5)c3n2)cc1`: the % of inhibition in assay [5] was -3%.
`CC[C@@H]1[C@H](F)C(=O)N[C@@H]1COc1nccc2cc(C(N)=O)c(OC)cc12` [ZIMLOVISERTIB]: the % of inhibition in [6] was -3%.
With `COc1cc(N(C)c2ccnc3ccc(C(F)(F)F)cc23)cc(OC)c1OC`, the % binding in [7] turned out to be 87%.
Turning to `CN(C(=O)c1cnn2cccnc12)c1cc2c(cc1N1CCOCC1)C(=O)N(C[C@@H](F)C(C)(C)O)C2`, in [8], the dTM is -0.3 K.
For the compound `N#Cc1cccc(-c2c[nH]c3ncnc(N4CCOCC4)c23)c1`, the % of control in [9] is 100%.
For the compound `CN1Cc2nccc(-c3cn(C)nc3-c3ccc(F)cc3)c2C1=O`, in assay [10], the % of inhibition came to 10%.
Consider `O[C@H]1CC[C@H](Nc2ncc3nc(Nc4c(F)cc(F)cc4F)n([C@H]4CCOC4)c3n2)CC1`, for which, in [11], the % of control is 100%.
